Measured values published in patent publication US20240239788A1, “SMALL MOLECULE INHIBITORS OF KRAS G12D MUTANT” (Merck Sharp & Dohme LLC, priority 2021, published 2024).
Structures can show the parent of a compound that is named as a salt. Where two headings read alike, the source gives them in different places.

Legend:
[1] = test system: AsPC-1 cells containing homozygous KRAS-G12D activating mutation; assay: Cellular phospho-ERK assay with 10% FBS (Examples 107a-256); assay type: cell-based
Description: 5% CO2 for 2 hours. […] Assay plates were read on a EnVision Multimode Plate Reader (PerkinElmer) and the ratio of p-Erk vs total Erk in each well was used as the final readout.

[2] = molecular target: KRAS protein containing G12D mutation (Homo sapiens (Human), UniProt P01116, G12D); assay: SOS-catalyzed nucleotide exchange assay (GNE), TR-FRET; assay type: biochemical; conditions: biotinylated KRAS G12D, SOS and GTP, 60-minute incubation
KRAS protein containing G12D mutation, sequence (P01116 other isoform, or with tags, fused parts or gaps G12D (already in the parent)): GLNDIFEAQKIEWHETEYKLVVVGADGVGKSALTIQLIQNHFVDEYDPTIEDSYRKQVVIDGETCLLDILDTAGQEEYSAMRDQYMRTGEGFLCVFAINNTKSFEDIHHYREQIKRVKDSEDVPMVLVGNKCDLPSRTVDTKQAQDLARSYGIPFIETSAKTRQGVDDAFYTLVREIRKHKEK
Description: Compounds are added to this complex and then after a 60-minute incubation time the mixture is treated with SOS and unlabeled GTP. Small molecule inhibitors stabilize the Bodipy-GDP complex whereas the untreated protein rapidly exchanges Bodipy-GDP for unlabeled GTP resulting in reduced TR-FRET signal.
This solution is referred to as biotinylated KRAS G12D stock solution.

[3] = Homo sapiens, ASPC1, 2 h, read-out: IC50 (nM) pERK (cell with FBS 10%), AsPC-1 cells, 10% fetal bovine serum, 2 hours, ratio of p-Erk vs total Erk
[4] = read-out: IC50 (nM) pERK (cell with FBS 10%), AsPC-1 cells, 10% fetal bovine serum, 2 hours, ratio of p-Erk vs total Erk
[5] = read-out: IC50 (nM) pERK (cell with FBS 10%), AsPC-1 cells, 10% fetal bovine serum, 2 hours, ratio of p-Erk vs total Erk, TFA

| SMILES | IC50 [1, 3] [nM] | IC50 [2] [nM] | IC50 [1, 4] [nM] | IC50 [1, 5] [nM] |
| --- | --- | --- | --- | --- |
| C[C@]12CCC(CN(c3nc(OC[C@@]45CCCN4C[C@H](F)C5)nc4c(F)c(-c5cc(O)cc6cccc(Cl)c56)c(F)c(F)c34)C1)N2 [Ex. 172, 5-chloro-4-(5,6,8-trifluoro-2-(((2R,7aS)-2-fluorotetrahydro-1H-pyrrolizin-7a(5H)-yl)-methoxy)-4-((1S,5R)-1-methyl-3,8-diaza-bicyclo[3.2.1]octan-3-yl)quinazolin-7-yl)-naphthalen-2-ol, 2TFA] | 3500 | 17.1 | – | – |
| Fc1cc2c(N3C[C@H]4CC[C@@H](C3)N4)nc(OC[C@@]34CCCN3C[C@H](F)C4)nc2c(F)c1-c1ccnc2cccc(Cl)c12 [Ex. 194, 4-((1R,5S)-3,8-diaza-bicyclo[3.2.1]octan-3-yl)-7-(5-chloroquinolin-4-yl)-6,8-difluoro-2-(((2R,7aS)-2-fluoro-tetrahydro-1H-pyrrol-izin-7a(5H)-yl)meth-oxy)quinazoline] | 11800 | 1920 | – | – |
| CCc1cccc2cc(O)cc(-c3c(F)cc4c(N5CC6CC[C@@](C)(C5)N6)nc(OC[C@@]56CCCN5C[C@H](F)C6)nc4c3F)c12 (single isomer, unassigned) [Ex. 178b] | – | 210 | 4580 | – |
| CN(C)C[C@@]1(COc2nc(N3C[C@H]4CC[C@@H](C3)N4)c3cc(F)c(-c4c(C(F)(F)F)c(Cl)cc5cnn(C)c45)c(F)c3n2)CC1(F)F (single isomer, unassigned) [Ex. 201b] | 15600 | 45.9 | – | – |
| CN1CCC[C@H]1COc1nc(N2CC3CC[C@@](C)(C2)N3)c2cc(F)c(-c3cc(O)cc4ccccc34)c(F)c2n1 [Example 118, 4-(6,8-difluoro-4-((1S,5R)-1-methyl-3,8-diazabicyclo [3.2.1]octan-3-yl)-2-(((S)-1-ethylpyrrolidin-2-yl)methoxy)quinazolin-7-l)naphthalen-2-ol] | 1810 | 82.6 | – | – |
| C[C@]12CCC(CN(c3nc(OC[C@@]45CCCN4C[C@H](F)C5)nc4c(F)c(-c5cc(O)cn6ncc(Cl)c56)c(F)cc34)C1)N2 (single isomer, unassigned) [Ex. 230b, TFA] | – | 162 | – | 9100 |
| C[C@@]12CC[C@H](CN(c3nc(OC[C@@]45CCCN4C[C@H](F)C5)nc4c(F)c(-c5cc(O)cc6ccc(F)c(Cl)c56)c(F)cc34)C1)N2 (single isomer, unassigned) [Ex. 176b] | 4360 | 110 | – | – |
| Cc1cc2[nH]nc(C)c2c(-c2c(F)cc3c(N4CC5CCC(C4)N5)nc(OC[C@@]45CCCN4C[C@H](F)C5)nc3c2F)c1OC(F)(F)F (single isomer, unassigned) [Ex. 232b] | – | 5.9 | 155 | – |
| Cc1cc(N)nc(-c2c(F)cc3c(N4CC5CC[C@@](C)(C4)N5)nc(OC[C@@]45CCCN4C[C@H](F)C5)nc3c2F)c1C(F)(F)F (single isomer, unassigned) [Ex. 200a] | 1220 | 72.9 | – | – |
| COCC1CCN(C[C@@]2(COc3nc(N4CC5CC[C@@](C)(C4)N5)c4cc(F)c(-c5cc(O)cc6cccc(Cl)c56)c(F)c4n3)CC2(F)F)C1 (single isomer, unassigned) [Ex. 214b] | – | 180 | 9070 | – |
| Cc1nc(N)nc(-c2c(F)cc3c(N4C[C@H]5CC[C@@H](C4)N5)nc(OC[C@@]45CCCN4C[C@H](F)C5)nc3c2F)c1C(F)(F)F [Ex. 135, 4-(4-((1R,5S)-3,8-diazabicyclo[3.2.1]octan-3-yl)-6,8-difluoro-2-(((2R,7aS)-2-fluorotetrahydro-1H-pyrrolizin-7a(5H)-yl)methoxy)quinazolin-7-yl)-6-methyl-5-(trifluoromethyl)pyrimidin-2-amine] | 469 | 54.6 | – | – |
| C#Cc1cccc2cccc(-c3c(F)cc4c(N5CC6(C)CCC(C)(C5)N6)nc(OC[C@@]56CCCN5C[C@H](F)C6)nc4c3F)c12 (single isomer, unassigned) [Ex. 190b, TFA] | – | 72 | – | 5830 |
| Cc1cc(N)nc(-c2c(Cl)cc3c(N4CC5CC(O)C(C4)N5)nc(OC[C@@]45CCCN4C[C@H](F)C5)nc3c2F)c1C(F)(F)F (single isomer, unassigned) [249b] | 360 | 1.52 | – | – |
| Cc1nc(N)c(F)c(-c2c(F)cc3c(N4CC5CCC(C4)N5)nc(OC[C@@]45CCCN4C[C@H](F)C5)nc3c2F)c1C(F)(F)F (single isomer, unassigned) [Ex. 151b] | – | 21.6 | 278 | – |
| C[C@@]12CC[C@H](CN(c3nc(OC[C@@]45CCCN4C[C@H](F)C5)nc4c(F)c(-c5cc(O)cc6cccc(F)c56)c(F)cc34)C1)N2 (single isomer, unassigned) [Ex. 186b] | – | 185 | 3780 | – |
| Cc1c(F)c(N)nc(-c2c(Cl)cc3c(N4C[C@H]5CC[C@@H](C4)N5)nc(OC[C@@]45CCCN4C[C@H](F)C5)nc3c2F)c1C(F)(F)F [Ex. 236] | – | 3.11 | 68.7 | – |
| C[C@]12CCC(CN(c3nc(OC[C@H]4CC[C@@]5(CO)CCCN45)nc4c(F)c(-c5cc(O)cc6cccc(Cl)c56)c(F)cc34)C1)N2 [243a, 5-chloro-4-(6,8-difluoro-2-(((38,7aS)-7a-(hydroxymethyl)hexahydro-1H-pyrrolizin-3-yl)methoxy)-4-((1S,5R)-1-methyl-3,8-diazabicyclo[3.2.1]octan-3-yl)quinazolin-7-yl)naphthalen-2-ol] | 30000 | 346 | – | – |
| COCC1CCN(C[C@@]2(COc3nc(N4CC5CC[C@@](C)(C4)N5)c4cc(F)c(-c5cc(O)cc6cccc(Cl)c56)c(F)c4n3)CC2(F)F)C1 (single isomer, unassigned) [Ex. 214a] | – | 4.95 | 3710 | – |
| Cc1n[nH]c2ncc(C(F)(F)F)c(-c3c(F)cc4c(N5C[C@H]6CC[C@@H](C5)N6)nc(OC[C@@]56CCCN5C[C@H](F)C6)nc4c3F)c12 [Ex. 234, 4-((1R,5S)-3,8-diazabicyclo[3.2.1]octan-3-yl)-6,8-difluoro-2-(((2R,7aS)-2-fluorotetrahydro-1H-pyrrolizin-7a(5H)-yl)methoxy)-7-(3-methyl-5-(trifluoromethyl)-1H-pyrazolo[3.4-b]pyridin-4-yl)quinazoline] | – | 64 | 785 | – |
| C[C@]12CC[C@H](CN(c3nc(OC[C@@]45CCCN4C[C@H](F)C5)nc4c(F)c(-c5cc(N)c(F)c6cccc(Cl)c56)c(F)cc34)C1)N2 (single isomer, unassigned) [Ex. 163a] | – | 47.5 | 2270 | – |
| C[C@]12CCC(CN(c3nc(OC[C@@H]4CC[C@H]5CC(F)(F)CCN45)nc4c(F)c(-c5cc(O)cc6cccc(Cl)c56)c(F)cc34)C1)N2 (single isomer, unassigned) [Ex. 175a] | 6450 | 738 | – | – |
| CN(C[C@@]1(COc2nc(N3CC4CC[C@@](C)(C3)N4)c3cc(F)c(-c4cc(O)cc5cccc(Cl)c45)c(F)c3n2)CC1(F)F)C1COC1 (single isomer, unassigned) [Ex. 220] | 7830 | 470 | – | – |
| C#Cc1cccc2nc(N)nc(-c3c(F)cc4c(N5C[C@H]6CC[C@@H](C5)N6)nc(OC[C@@]56CCCN5C[C@H](F)C6)nc4c3F)c12 [compound 235, 4′-((1R,5S)-3,8-diazabicyclo[3.2.1]octan-3-yl)-5-ethynyl-6′,8′-difluoro-2′-(((2R,7aS)-2-fluorotetrahydro-1H-pyrrolizin-7a(5H)-yl)methoxy)-[4,7′-biquinazolin]-2-amine] | 910 | 91.7 | – | – |
| C[C@@]12CC[C@H](CN(c3nc(OC[C@@]45CCCN4C[C@H](F)C5)nc4c(F)c(-c5cc(O)cc6cccc(F)c56)c(F)cc34)C1)N2 (single isomer, unassigned) [Ex. 186a] | – | 1.49 | 180 | – |
| Cc1c(C(F)(F)F)c(-c2c(F)cc3c(N4CC5CCC(C4)N5)nc(OC[C@@]45CCCN4C[C@H](F)C5)nc3c2F)c2cn[nH]c2c1F (single isomer, unassigned) [Ex. 166b] | – | 4.4 | 152 | – |
| Cc1cc2[nH]nc(C#N)c2c(-c2c(F)cc3c(N4C[C@H]5CC[C@@H](C4)N5)nc(OC[C@@]45CCCN4C[C@H](F)C5)nc3c2F)c1OC(F)(F)Cl [compound 255, 4-(4-((1R,5S)-3,8-diazabicyclo[3.2.1]octan-3-yl)-6,8-difluoro-2-(((2R,7aS)-2-fluorotetrahydro-1H-pyrrolizin-7a(5H)-yl)methoxy)quinazolin-7-yl)-5-(chlorodifluoromethoxy)-6-methyl-1H-indazole-3-carbonitrile] | 58.9 | 0.79 | – | – |
| C[C@]12CC[C@H](CN(c3nc(OC[C@H]4CCNC4)nc4c(F)c(-c5cc(O)cc6ccccc56)c(Cl)cc34)C1)N2 [Example 119, 4-(6-chloro-8-fluoro-4-((1S,5R)-1-methyl-3,8-diazabicyclo[3.2.1]octan-3-yl)-2-(((S)-pyrrolidin-3-yl)methoxy)quinazolin-7-yl)naphthalen-2-ol, TFA] | 30000 | 1440 | – | – |
| C#Cc1c(F)ccc2cccc(-c3c(F)cc4c(N5CC6CC[C@@](C)(C5)N6)nc(OCC56CCCN5C(COC(=O)N(C)C)CC6)nc4c3F)c12 (single isomer, unassigned) [242a] | – | 1.15 | 135 | – |
| Cc1cc2[nH]ncc2c(-c2c(F)cc3c(N4C[C@H]5CC[C@@](C)(C4)N5)nc(OC[C@@]45CCCN4C[C@H](F)C5)nc3c2F)c1OC(F)(F)F (single isomer, unassigned) [Ex. 126b] | – | 67.9 | 3460 | – |
| C#Cc1cccc2scc(-c3c(F)cc4c(N5CC6CC[C@@](C)(C5)N6)nc(OCC5(CN6CCOCC6)CC5)nc4c3F)c12 (single isomer, unassigned) [Ex. 147a] | 16600 | 400 | – | – |
